Read-outs that look alike come from different tables or passages of the source.
Experiments:
[1] = target: full-length human Cal1 (Homo sapiens (Human), UniProt P07384); assay: Calpain inhibition FRET assay; format: biochemical
[2] = test system: APP/PS1 mice; assay: Behavioral rescue assays (contextual fear memory, 2-day RAWM reference memory); format: in vivo
[3] = test system: Aβ40 and Aβ42; assay: Effect on Aβ levels in APP/PS1 mice; format: in vivo; conditions: compound-treated vs vehicle-treated APP/PS1 transgenics
Excerpt: Increase of brain and plasma levels of Aβ and appearance of amyloid plaques is an important feature of AD.

[4] = test system: Aβ-induced LTP impairment; assay: LTP rescue test; conditions: assessed at 650 nM
Description: Residual levels of potentiation were averaged during the last 5 min of LTP.

[5] = APP/PS1 mice, daily treatment from 2 until 7 months

Sequence of full-length human Cal1 (P07384 whole entry): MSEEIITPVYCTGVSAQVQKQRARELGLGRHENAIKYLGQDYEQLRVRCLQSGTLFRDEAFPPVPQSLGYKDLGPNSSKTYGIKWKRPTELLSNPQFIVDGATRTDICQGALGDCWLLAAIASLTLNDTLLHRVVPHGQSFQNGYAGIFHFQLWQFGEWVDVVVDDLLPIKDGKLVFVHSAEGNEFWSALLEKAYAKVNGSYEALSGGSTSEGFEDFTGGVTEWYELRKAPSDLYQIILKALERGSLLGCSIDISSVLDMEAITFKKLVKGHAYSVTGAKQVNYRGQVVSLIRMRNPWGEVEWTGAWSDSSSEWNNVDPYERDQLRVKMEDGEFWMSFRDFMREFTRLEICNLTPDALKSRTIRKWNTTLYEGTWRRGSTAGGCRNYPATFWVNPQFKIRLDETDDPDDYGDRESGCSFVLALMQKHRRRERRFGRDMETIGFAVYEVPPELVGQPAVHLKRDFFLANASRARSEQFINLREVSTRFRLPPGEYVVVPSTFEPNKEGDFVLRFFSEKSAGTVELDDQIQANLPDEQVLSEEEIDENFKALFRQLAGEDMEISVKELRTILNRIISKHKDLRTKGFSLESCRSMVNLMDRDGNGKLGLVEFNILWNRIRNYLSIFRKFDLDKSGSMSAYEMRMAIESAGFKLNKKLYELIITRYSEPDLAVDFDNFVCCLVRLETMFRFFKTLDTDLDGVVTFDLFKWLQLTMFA
Sequence of full-length human Cal1 (P04632 whole entry partner): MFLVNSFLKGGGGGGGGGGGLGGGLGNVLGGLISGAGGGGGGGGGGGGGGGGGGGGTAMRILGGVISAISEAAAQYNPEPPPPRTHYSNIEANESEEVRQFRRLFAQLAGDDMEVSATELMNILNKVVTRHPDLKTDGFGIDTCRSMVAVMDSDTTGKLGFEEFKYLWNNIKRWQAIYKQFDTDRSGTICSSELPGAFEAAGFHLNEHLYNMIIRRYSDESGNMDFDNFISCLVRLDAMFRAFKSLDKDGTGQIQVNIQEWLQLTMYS

SMILES: O=C(O)C1OC1C(=O)N[C@@H](Cc1cscn1)C(=O)Nc1nc(-c2ccc(F)cc2)cs1 (stereo in doubt) [Compound 33, (2S,3S)-3-((S)-1-(4-(4-fluorophenyl)thiazol-2-ylamino)-1-oxo-3-(thiazol-4-yl)propan-2-ylcarbamoyl)oxirane-2-carboxylic acid]
- IC50 ([1]; Cal1, values stated in text, read-out: IC50): ~100 nM
- IC50 ([1]; Table 2, approximate IC50, read-out: Cal I IC50): 100 nM
- reference memory ([2]; 3 month old APP/PS1 mice, 2-day RAWM, daily from 2 months): beneficial
- contextual fear memory ([2]; 3 month old APP/PS1 mice, daily i.p. from 2 months): beneficial
- memory impairment ([2]; 7 month old APP/PS1 mice, chronic administration): beneficial
- contextual fear memory [2, 5]: ameliorated
- reference memory [2, 5]: ameliorated
- Aβ40 and Aβ42 levels in hippocampi [3]: no difference was detected
- potency for LTP rescue compared with E64 [4]: surpassed E64

Reference: patent publication US9403843B2, “Cysteine protease inhibitors and uses thereof” (The Trustees of Columbia University in the City of New York, priority 2012, dated 2016)
